Results published in patent US20250171457A1, “NITROGEN-CONTAINING HETEROCYCLIC COMPOUND HAVING NRF2 ACTIVATION EFFECT” (CHUGAI SEIYAKU KABUSHIKI KAISHA, priority 2022, published 2025).

system: Nrf2 transcriptional activity (pARE-Luc reporter) in HepG2 cells; assay: In vitro Nrf2 transcriptional activity measurement by ARE-dependent reporter assay in HepG2 cell; format: cell-based, human; settings: Homo sapiens; HepG2 cells transfected with pARE-Luc, 4 hours at 37° C.; luciferase activity of Example 1-54 or Example 17-23 at 3.75 μM defined as 100%
Procedure, shortened: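 Luminescence readout (Bright-Glo) after 4 h, 37° C compound exposure of HepG2 cells carrying the ARE-luciferase vector pGL4.37. Each well converted to % response versus reference compound at 3.75 μM, and EC50 derived from dose-response curves.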

| SMILES | EC50 |
| --- | --- |
| O=C(O)c1cc(F)c(-c2cccc3c2OCN(C(=O)c2c(Cl)cc(-c4cnc5n4CCC5)cc2Cl)C3)cc1N1C2CCC1COC2 [Compound 3-22, 4-[3-[2,6-Dichloro-4-(6,7-dihydro-5H-pyrrolo[1,2-a]imidazol-3-yl)benzoyl]-2,4-dihydro-1,3-benzoxazin-8-yl]-5-fluoro-2-(3-oxa-8-azabicyclo[3.2.1]octan-8-yl)benzoic acid] | 21 nM |
| O=C(O)c1cc(F)c(-c2cccc3c2OCN(C(=O)c2c(Cl)cc(-c4cc5ccccc5o4)cc2Cl)C3)cc1N1C2CCC1COC2 [Compound 3-23, 4-[3-[4-(1-Benzofuran-2-yl)-2,6-dichlorobenzoyl]-2,4-dihydro-1,3-benzoxazin-8-yl]-5-fluoro-2-(3-oxa-8-azabicyclo[3.2.1]octan-8-yl)benzoic acid] | 21 nM |
| O=C(O)c1cc(F)c(-c2cccc3c2OCN(C(=O)c2c(Cl)cc(-c4cccc5ccoc45)cc2Cl)C3)cc1N1C2CCC1COC2 [Compound 3-24, 4-[3-[4-(1-Benzofuran-7-yl)-2,6-dichlorobenzoyl]-2,4-dihydro-1,3-benzoxazin-8-yl]-5-fluoro-2-(3-oxa-8-azabicyclo[3.2.1]octan-8-yl)benzoic acid] | 31 nM |
| O=C(O)c1cc(F)c(-c2cccc3c2OCN(C(=O)c2c(Cl)cc(-c4cncc5ccoc45)cc2Cl)C3)cc1N1C2CCC1COC2 [Compound 3-25, 4-[3-(2,6-Dichloro-4-furo[3,2-c]pyridin-7-ylbenzoyl)-2,4-dihydro-1,3-benzoxazin-8-yl]-5-fluoro-2-(3-oxa-8-azabicyclo[3.2.1]octan-8-yl)benzoic acid] | 7.7 nM |
| COc1ncc(-c2cc(Cl)c(C(=O)N3COc4c(cccc4-c4cc(N5C6CCC5COC6)c(C(=O)O)cc4F)C3)c(Cl)c2)c2nn(C)nc12 [Compound 3-26, 4-[3-[2,6-Dichloro-4-(4-methoxy-2-methyltriazolo[4,5-c]pyridin-7-yl)benzoyl]-2,4-dihydro-1,3-benzoxazin-8-yl]-5-fluoro-2-(3-oxa-8-azabicyclo[3.2.1]octan-8-yl)benzoic acid] | 9.8 nM |
| COc1ncc(-c2cc(Cl)c(C(=O)N3COc4c(cccc4-c4cc(N5C6CCC5COC6)c(C(=O)O)cc4F)C3)c(Cl)c2)c2nnn(C)c12 [Compound 3-27, 4-[3-[2,6-Dichloro-4-(4-methoxy-3-methyltriazolo[4,5-c]pyridin-7-yl)benzoyl]-2,4-dihydro-1,3-benzoxazin-8-yl]-5-fluoro-2-(3-oxa-8-azabicyclo[3.2.1]octan-8-yl)benzoic acid] | 8.8 nM |
| COCCn1cc(-c2cc(Cl)c(C(=O)N3COc4c(cccc4-c4ccc(C(=O)O)c(N5CCOCC5)c4)C3)c(Cl)c2)cn1 [Compound 3-28, 4-[3-[2,6-Dichloro-4-[1-(2-methoxyethyl)pyrazol-4-yl]benzoyl]-2,4-dihydro-1,3-benzoxazin-8-yl]-2-morpholin-4-ylbenzoic acid] | 2.1 nM |
| COC1CN(c2cc(Cl)c(C(=O)N3COc4c(cccc4-c4cc(N5C6CCC5COC6)c(C(=O)O)cc4F)C3)c(Cl)c2)C1 [Compound 4-1, 4-[3-[2,6-Dichloro-4-(3-methoxyazetidin-1-yl)benzoyl]-2,4-dihydro-1,3-benzoxazin-8-yl]-5-fluoro-2-(3-oxa-8-azabicyclo[3.2.1]octan-8-yl)benzoic acid] | 3.1 nM |
| CCOC1(C)CN(c2cc(Cl)c(C(=O)N3COc4c(cccc4-c4cc(N5C6CCC5COC6)c(C(=O)O)cc4F)C3)c(Cl)c2)C1 [Compound 4-2, 4-[3-[2,6-Dichloro-4-(3-ethoxy-3-methylazetidin-1-yl)benzoyl]-2,4-dihydro-1,3-benzoxazin-8-yl]-5-fluoro-2-(3-oxa-8-azabicyclo[3.2.1]octan-8-yl)benzoic acid] | 1.2 nM |
| CCC1(OC)CN(c2cc(Cl)c(C(=O)N3COc4c(cccc4-c4cc(N5C6CCC5COC6)c(C(=O)O)cc4F)C3)c(Cl)c2)C1 [Compound 4-3, 4-[3-[2,6-Dichloro-4-(3-ethyl-3-methoxyazetidin-1-yl)benzoyl]-2,4-dihydro-1,3-benzoxazin-8-yl]-5-fluoro-2-(3-oxa-8-azabicyclo[3.2.1]octan-8-yl)benzoic acid] | 1.7 nM |
